Assay results as given in the NIST ThermoML archive (doi:10.1021/je201211f).

What was measured:
[1] = 298.15 K, 101.33 kPa, Liquid; for viscosity: Capillary tube (Ostwald / Ubbelohde) method; for mass density: Vibrating tube method
[2] = refractive index (Na D-line) (dimensionless); conditions: 298.15 K; 101.33 kPa; Liquid; Standard Abbe refractometry
[3] = xn = mol fraction of the nth substance listed; conditions: 101 kPa, Liquid; for mass density: Vibrating tube method; for viscosity: Capillary tube (Ostwald / Ubbelohde) method
[4] = refractive index (Na D-line) (dimensionless); xn = mol fraction of the nth substance listed; conditions: 298.15 K, 101 kPa, Liquid

Cc1ccccc1C [1,2-dimethylbenzene]
Conditions	mass density [kg/m3]	refractive index	viscosity [mPa·s]
[1]	875.57	–	0.757
[2]	–	1.5024	–

Cc1ccccc1C [1,2-dimethylbenzene] + CC(=O)O
[3]
Conditions	mass density, 293.15 K [kg/m3]	mass density, 298.15 K [kg/m3]	mass density, 303.15 K [kg/m3]	viscosity, 298.15 K [mPa·s]
x2 = 0.0479	882.96	878.72	874.46	–
x2 = 0.0852	–	–	–	0.7491
x2 = 0.1264	888.76	884.42	880.07	–
x2 = 0.1881	–	–	–	0.7412
x2 = 0.2399	898.21	893.74	889.26	–
x2 = 0.2447	–	–	–	0.7448
x2 = 0.2632	900.31	895.82	891.31	–
x2 = 0.3036	904.17	899.62	895.06	–
x2 = 0.3206	–	–	–	0.7457
x2 = 0.3894	–	–	–	0.7476
x2 = 0.4089	915.71	911.04	906.34	–
x2 = 0.4323	918.49	913.77	909.03	–
x2 = 0.4729	–	–	–	0.7532
x2 = 0.479	924.47	919.7	914.91	–
x2 = 0.5609	935.9	930.9	926.08	–
x2 = 0.5694	–	–	–	0.7667
x2 = 0.6332	947.71	942.68	937.66	–
x2 = 0.6388	–	–	–	0.7838
x2 = 0.7151	–	–	–	0.8113
x2 = 0.7184	964.07	958.92	953.75	–
x2 = 0.7912	980.62	975.33	970.03	–
x2 = 0.8031	–	–	–	0.8592
x2 = 0.8814	1005.53	1000.08	994.74	–
x2 = 0.8817	–	–	–	0.9274
x2 = 0.9589	–	–	–	1.035
x2 = 0.9652	1034.87	1029.28	1023.69	–

[4]
Conditions	refractive index
x2 = 0.0852	1.4965
x2 = 0.1881	1.4875
x2 = 0.2447	1.4816
x2 = 0.3206	1.4747
x2 = 0.3894	1.4672
x2 = 0.4729	1.4579
x2 = 0.5569	1.4472
x2 = 0.636	1.4363
x2 = 0.7151	1.424
x2 = 0.8031	1.4099
x2 = 0.8817	1.3951
x2 = 0.9589	1.379

Cc1cccc(C)c1 [1,3-dimethylbenzene]
Conditions	mass density [kg/m3]	refractive index	viscosity [mPa·s]
[1]	859.88	–	0.589
[2]	–	1.4944	–

Cc1cccc(C)c1 [1,3-dimethylbenzene] + CC(=O)O
[3]
Conditions	mass density, 293.15 K [kg/m3]	mass density, 298.15 K [kg/m3]	mass density, 303.15 K [kg/m3]	viscosity, 298.15 K [mPa·s]
x2 = 0.0777	869.99	865.62	861.24	–
x2 = 0.0962	–	–	–	0.5885
x2 = 0.1623	876.98	872.54	–	–
x2 = 0.1625	–	–	–	0.5929
x2 = 0.2143	881.73	877.22	872.69	–
x2 = 0.2833	888.6	884	879.39	–
x2 = 0.3223	–	–	–	0.6061
x2 = 0.35	895.97	891.29	886.59	–
x2 = 0.3797	–	–	–	0.6144
x2 = 0.3896	900.67	895.94	891.18	–
x2 = 0.4773	–	–	–	0.6308
x2 = 0.4801	912.73	907.88	903	–
x2 = 0.557	–	–	–	0.6504
x2 = 0.5621	925.38	920.41	915.43	–
x2 = 0.6204	935.7	930.66	925.59	–
x2 = 0.6405	–	–	–	0.6798
x2 = 0.7182	–	–	–	0.7206
x2 = 0.7214	956.29	951.08	945.86	–
x2 = 0.7955	–	–	–	0.7754
x2 = 0.8155	980.67	975.31	969.94	–
x2 = 0.8721	–	–	–	0.8578
x2 = 0.8758	999.34	993.89	988.44	–
x2 = 0.9649	–	–	–	1.023
x2 = 0.9672	1034.28	1028.66	1023.08	–

[4]
Conditions	refractive index
x2 = 0.0962	1.4877
x2 = 0.1625	1.4829
x2 = 0.3223	1.4682
x2 = 0.3797	1.4616
x2 = 0.4773	1.4523
x2 = 0.557	1.4424
x2 = 0.6405	1.4319
x2 = 0.7182	1.421
x2 = 0.7955	1.4066
x2 = 0.8721	1.3931
x2 = 0.9649	1.3773

Cc1ccc(C)cc1 [1,4-dimethylbenzene]
Conditions	mass density [kg/m3]	refractive index	viscosity [mPa·s]
[1]	856.68	–	0.609
[2]	–	1.4929	–

Cc1ccc(C)cc1 [1,4-dimethylbenzene] + CC(=O)O
[3]
Conditions	mass density, 293.15 K [kg/m3]	mass density, 298.15 K [kg/m3]	mass density, 303.15 K [kg/m3]	viscosity, 298.15 K [mPa·s]
x2 = 0.0415	864.09	859.71	855.31	–
x2 = 0.0863	–	–	–	0.6099
x2 = 0.1166	870.08	865.62	861.15	–
x2 = 0.157	873.55	869.05	864.53	–
x2 = 0.1651	874.28	869.76	865.24	–
x2 = 0.173	–	–	–	0.6095
x2 = 0.2386	–	–	–	0.6117
x2 = 0.2466	882	877.4	872.79	–
x2 = 0.2659	884.01	879.38	874.76	–
x2 = 0.3096	–	–	–	0.6159
x2 = 0.3246	890.49	885.78	881.08	–
x2 = 0.3987	–	–	–	0.625
x2 = 0.4234	902.44	897.64	892.81	–
x2 = 0.4717	909.04	904.17	899.29	–
x2 = 0.4897	–	–	–	0.6398
x2 = 0.5505	921.33	916.35	911.38	–
x2 = 0.5621	–	–	–	0.6575
x2 = 0.6323	–	–	–	0.68
x2 = 0.6435	938.19	933.07	927.95	–
x2 = 0.7212	–	–	–	0.7243
x2 = 0.7299	957.01	951.78	946.53	–
x2 = 0.7965	–	–	–	0.7753
x2 = 0.8099	977.97	972.61	967.24	–
x2 = 0.8784	–	–	–	0.8675
x2 = 0.8851	1001.76	996.29	990.81	–
x2 = 0.955	–	–	–	1.003
x2 = 0.9601	1030.99	1025.4	1019.76	–

[4]
Conditions	refractive index
x2 = 0.0863	1.4874
x2 = 0.173	1.4805
x2 = 0.2386	1.4748
x2 = 0.3096	1.4682
x2 = 0.3987	1.4598
x2 = 0.4897	1.4498
x2 = 0.5621	1.4414
x2 = 0.6323	1.4325
x2 = 0.7212	1.4202
x2 = 0.7965	1.4084
x2 = 0.8784	1.3939
x2 = 0.955	1.3791
